Experimental data taken from PubChem BioAssay AID720667 (NMMLSC, 2013).
The source made the active and inactive calls.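 The calls were made as follows: active = over 50% inhibition of phosphorylation of either protein kinase C substrates or the ERK kinase; inactive = both inhibited below 50%.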

Test system: TALL-104 cells, ERK phosphorylation flow cytometry
Assay: inhibitors of MAPKK activity via ERK phosphorylation, late-stage follow-up, mechanism study for lytic granule exocytosis inhibitor project, TALL-104 cells, flow cytometry, CherryPick01 (AID 720667)
Conditions: active compounds read high; dose or concentration not given here

SMILES: CCCCC[C@@H](C)N1C[C@@H](COCc2ccccc2)Oc2cc(N3CC[C@H](N(C)C)C3)ccc2S1(=O)=O
- inhibition: 28% (inactive)

SMILES: Cc1ccc(S(=O)(=O)n2ccc3c(OCCOCCNCc4ccc(F)cc4)cccc32)cc1
- inhibition: -8.2% (inactive)

SMILES: CCCCC[C@@H](C)N1C[C@H](COCc2ccccc2)Oc2cc(N3CC[C@@H](N(C)C)C3)ccc2S1(=O)=O
- inhibition: 37.2% (inactive)

SMILES: O=c1c2ccc(F)cc2sn1-c1ccccc1
- inhibition: 53.4%

SMILES: CCCCC[C@@H](C)N1C[C@@H](COCc2ccccc2)Oc2cc(N3CC[C@@H](N(C)C)C3)ccc2S1(=O)=O
- inhibition: 51.1%

SMILES: O=C(CN1C(=O)/C(=C\c2cccc(Br)c2)Oc2ccccc21)NCCCN1CCOCC1
- inhibition: 8% (inactive)

SMILES: CC1=C(C)CS(=O)N(S(=O)(=O)c2ccc(Cl)cc2)C1 (configuration not stated)
- inhibition: 83.8%

SMILES: O=CNc1cc(-c2ccsc2)cn2c(-c3ccccc3)cnc12
- inhibition: -17.6% (inactive)

SMILES: CC(C)(c1ccccc1)c1ccc(OCC(O)CNC2CCN(Cc3ccccc3)CC2)cc1 (configuration not stated)
- inhibition: 36.4% (inactive)

SMILES: COc1ccccc1CNc1nc(NCc2ccc(C(C)C)cc2)c2sccc2n1
- inhibition: -14.8% (inactive)

SMILES: O=C(Cn1sc2ccccc2c1=O)Nc1ccc(F)cc1
- inhibition: 18.2% (inactive)

SMILES: COc1ccc(N2C(=O)CC(Sc3nnc(-c4ccccc4)o3)C2=O)cc1 (configuration not stated)
- inhibition: 17.4% (inactive)

SMILES: Cc1cc(N2CCN(c3nc(-c4ccc([N+](=O)[O-])cc4)cs3)CC2)c2ccccc2n1
- inhibition: 78.9%

SMILES: N#Cc1c(Nc2ccccc2Cl)s[nH]c1=O
- inhibition: 66.4%

SMILES: COc1ccc(-c2cc(NC=O)c3ncc(-c4cccc(OC)c4)n3c2)cc1
- inhibition: -18.8% (inactive)

SMILES: COc1ccc(-n2sc3ccccc3c2=O)cc1
- inhibition: 35% (inactive)

SMILES: CN(C)CCNC(=O)c1ccc(-c2cn3c(-c4ccc(Oc5ccccc5)cc4)cnc3cn2)cc1
- inhibition: -0.1% (inactive)

SMILES: CCN(CC)CCCNc1ccc(-c2nnc(-c3ccc(OCC(C)C)cc3)o2)cn1
- inhibition: -22.6% (inactive)

SMILES: COC(=O)c1c(NC(=O)c2nc3ccccc3s2)sc2c1CC(C)(C)NC2(C)C
- inhibition: 11.8% (inactive)

SMILES: O=c1c2ccccc2sn1-c1ccccc1
- inhibition: 37.9% (inactive)

SMILES: O=C(Cn1sc2ccccc2c1=O)NC12CC3CC(CC(C3)C1)C2
- inhibition: 35.6% (inactive)

SMILES: CC1COCC(C)N1C1=C(Cl)C(=O)c2ccccc2C1=O (configuration not stated)
- inhibition: -16.4% (inactive)

SMILES: O=C1CC(Sc2nnnn2-c2ccccc2)C(=O)N1c1cccc(Cl)c1 (configuration not stated)
- inhibition: 67.2%

SMILES: COc1ccc(-c2cc(NC=O)c3ncc(-c4ccccc4)n3c2)cc1OC
- inhibition: -2.1% (inactive)

SMILES: CCOC(=O)c1c(NC(=O)COc2ccccc2OCC)sc2c1CC(C)(C)NC2(C)C
- inhibition: 87.3%

SMILES: Cc1ccc(Nc2nc(NCc3ccco3)c3ccccc3n2)cc1
- inhibition: 1.1% (inactive)

SMILES: CC1=NOC(=O)/C1=C/c1ccc(-c2ccc(Cl)cc2)o1
- inhibition: 40.3% (inactive)
